Data as given in US4450269A, “Mono-5-substituted-3-chloro-4H-1,2,6-thiadiazin-4-one antifungal agents” (FMC Corporation, priority 1980, dated 1984).
Read-outs that look alike come from different tables or passages of the source.

Legend:
Phytophthora infestans = type: cell-based; details: PI, 48 hours
Alternaria solani = assay: Mycelial growth test; type: cell-based; details: Alternaria solani, 72 h, AS, read-out: Percent Fungus Growth Inhibition

Compound	Spore Germination Rating (Phytophthora infestans; 1.0 ppm)	Spore Germination Rating (Phytophthora infestans; 2.5 ppm)	Spore Germination Rating (Phytophthora infestans; 10 ppm)	Spore Germination Rating (Phytophthora infestans; 40 ppm)	inhibition at 5 ppm (Alternaria solani) [%]	inhibition at 10 ppm (Alternaria solani) [%]	inhibition at 20 ppm (Alternaria solani) [%]	inhibition at 40 ppm (Alternaria solani) [%]
O=c1c(Cl)nsnc1Oc1ccc([N+](=O)[O-])cc1 [Compound 9, 3-chloro-5-(4-nitrophenoxy)-4H--1,2,6-thiadiazin-4-one]	0 (0-10)	0 (0-10)	0 (0-10)	0 (0-10)	31	63	100	100
Cc1cc(Oc2nsnc(Cl)c2=O)cc(C)c1Br [Compound 60, 3-[(4-bromo-3,5-dimethyl)-phenoxy]-5-chloro-4H--1,2,6-thiadiazin-4-one]	4 (80-100)	2 (40-60)	1 (10-40)	0 (0-10)	33	43	52	52
O=c1c(Cl)nsnc1Oc1ccc(Br)cc1 [Compound 15, 3-chloro-5-(4-bromophenoxy)-4H--1,2,6-thiadiazin-4-one]	0 (0-10)	1 (10-40)	0 (0-10)	0 (0-10)	54	66	66	75
